Results from patent publication US10857137B2, “Methods for the administration of certain VMAT2 inhibitors” (Neurocrine Biosciences, Inc., priority 2017, dated 2020).
“Also recorded” adds a separate entry of the source.

Experiments:
[1] = test system: dopamine, serotonin and adrenergic receptor subtypes; test: Detailed radioligand binding assays, monoamine receptors; conditions: radioligand binding assays and broad panel screen
[2] = test system: prolactin release (D2 dopamine receptor); test: Serum prolactin, in vivo surrogate measure
rat and human VMAT2 = test: VMAT2 [3H]-DHTBZ binding, summary statements over rat and human tissues; conditions: rat striatum and human platelet homogenates
Protocol: The affinity of each compound was measured by inhibition of [^3H]-DHTBZ binding to rat forebrain membranes. […] The affinity of each compound was measured by inhibition of [^3H]-DHTBZ binding to either human platelets or rat striatal membranes.

[3] = Plasma concentrations of circulating metabolites of VBZ; assay type: in vivo; conditions: metabolites formed from VBZ
human VMAT1 transporter = target: T1, human VMAT1 transporter (Homo sapiens, UniProt P54219); test: Uptake in cells expressing VMAT1; assay type: cell-based; conditions: test compounds at concentrations up to 10 μM
T1 construct: expressed in transfected cells
T1 sequence (P54219 1-525): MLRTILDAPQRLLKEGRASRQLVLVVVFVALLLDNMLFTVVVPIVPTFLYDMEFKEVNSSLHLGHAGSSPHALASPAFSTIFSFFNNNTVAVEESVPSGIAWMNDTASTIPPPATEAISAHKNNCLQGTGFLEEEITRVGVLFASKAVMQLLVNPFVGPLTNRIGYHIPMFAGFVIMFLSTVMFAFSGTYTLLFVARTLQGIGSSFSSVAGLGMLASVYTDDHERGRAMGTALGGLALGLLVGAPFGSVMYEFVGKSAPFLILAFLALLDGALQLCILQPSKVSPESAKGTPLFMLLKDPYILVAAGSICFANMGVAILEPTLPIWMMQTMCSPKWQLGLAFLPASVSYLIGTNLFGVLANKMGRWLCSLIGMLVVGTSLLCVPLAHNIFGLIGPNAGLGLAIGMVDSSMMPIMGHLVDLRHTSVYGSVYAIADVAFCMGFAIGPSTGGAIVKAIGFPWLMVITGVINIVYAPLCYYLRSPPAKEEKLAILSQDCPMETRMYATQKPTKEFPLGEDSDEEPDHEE

[4] = test system: ptosis (adrenergic activation); test: Ptosis, in vivo surrogate measure
[5] = test system: more than 80 targets including GPCRs, cell-surface monoamine transporters, and ion channels including HERG; test: Multi-target activity screen (Cerep screen), whole panel; assay type: binding; conditions: receptors

With COc1cc2c(cc1OC)[C@@H]1C[C@@H](O)[C@@H](CC(C)C)CN1CC2 [R,S,S-DHTBZ, reference compound] as the molecule, how does the “interaction with D1 and D2 receptors, in words” value [1] read?
Its value is “interact with D1 and D2 receptors”.

What does the source list for COc1cc2c(cc1OC)[C@H]1C[C@@H](O)[C@H](CC(C)C)CN1CC2 [R,R,R-DHTBZ, (2R,3R,11bR)-3-isobutyl-9,10-dimethoxy-1,3,4,6,7,11b-hexahydro-2H-pyrido[2,1-a]isoquinolin-2-ol]?
increase in serum prolactin levels, in words [2]: induced a similar increase in serum prolactin levels as TBZ; VMAT2 inhibition, in words (rat and human VMAT2): most potent inhibitor of VMAT2; decline of plasma concentrations (half-lives), in words [3]: half-lives similar to VBZ; inhibition of uptake through VMAT1, in words (human VMAT1 transporter): no significant inhibitory activity; also recorded: no significant effect; induction of ptosis, in words [4]: induced ptosis in an equivalent manner; affinity for more than 80 binding sites, in words [5]: little to no affinity

For COc1cc2c(cc1OC)[C@H]1C[C@@H](OC(=O)[C@@H](N)C(C)C)[C@H](CC(C)C)CN1CC2 [Valbenazine, (S)-2-amino-3-methyl-butyric acid (2R,3R,11bR)-3-isobutyl-9,10-dimethoxy-1,3,4,6,7,11b-hexahydro-2H-pyrido[2,1-a]isoquinolin-2-yl ester], which “increase in serum prolactin levels, in words” value [2] is on record?
Its value is “to a lesser extent”.

What about the “inhibition of uptake through VMAT1, in words” value (human VMAT1 transporter; listed as VBZ) of the same molecule?
The value was “no significant inhibitory activity; also recorded: no significant effect”.

What about the “induction of ptosis, in words” value [4] of the same molecule?
The value was “induced ptosis in an equivalent manner”.

And the “affinity for more than 80 binding sites, in words” value [5]?
The value was “little to no affinity”.

Which “increase in serum prolactin levels, in words” value [2] does the source give for COc1cc2c(cc1OC)C1CC(=O)C(CC(C)C)CN1CC2 (stereo not shown) [TBZ, reference compound] here?
Its value is “increase in serum prolactin levels”.

What about the “inhibition of uptake through VMAT1, in words” value (human VMAT1 transporter) of the same molecule?
The value was “no significant inhibitory activity; also recorded: no significant effect”.

And the “induction of ptosis, in words” value [4]?
The value was “induced ptosis in an equivalent manner”.

What does the source list for COc1cc2c(cc1OC)[C@H]1C[C@@H](OC(=O)[C@@H](N)C(C)(C)O)[C@H](CC(C)C)CN1CC2 [NBI-136110]?
decline of plasma concentrations (half-lives), in words [3]: half-lives similar to VBZ; inhibition of uptake through VMAT1, in words (human VMAT1 transporter): no significant inhibitory activity; also recorded: no significant effect; affinity for more than 80 binding sites, in words [5]: little to no affinity

Which “inhibition of uptake through VMAT1, in words” value (human VMAT1 transporter) does the source give for COC(=O)[C@H]1[C@H]2C[C@@H]3c4[nH]c5cc(OC)ccc5c4CCN3C[C@H]2C[C@@H](OC(=O)c2cc(OC)c(OC)c(OC)c2)[C@@H]1OC [reserpine, reference compound] here?
Its value is “substantially inhibited uptake through VMAT1”.

Which “interaction with D1 and D2 receptors, in words” value [1] does the source give for COc1cc2c(cc1OC)[C@@H]1C[C@H](O)[C@@H](CC(C)C)CN1CC2 [S,S,S-DHTBZ, reference compound] here?
The value was “interact with D1 and D2 receptors”.
